We go through three compounds from patent publication US6136327A, “Stereospecific delivery of a drug using electrotransport” (priority 1997, dated 2000).

Broadly, the AUC(0-inf) is the area under the concentration-time curve extrapolated to infinity. A low value points to less exposure. The half-life is how long it takes for the measured level to halve.

A short description of data set [1]: clinical. The settings on record: in vivo; for AUC(0-inf): AUCinf. How it is done: A study was performed in order to compare the pharmacokinetic parameters of R- and S-ketorolac following intravenous, passive transdermal and electrotransport administration of a racemic mixture of ketorolac.
Twelve healthy male volunteers were enrolled in a pilot feasibility study. Subjects were required to undergo a pre-study screening to evaluate whether they met study inclusion or exclusion criteria. Screening procedures included a medical history, physical exam, electrocardiogram and clinical laboratory tests.
The study was an open-label, randomized, three-treatment crossover pharmacokinetics study designed to compare plasma ketorolac concentrations during 24-hour treatment regimens with an electrotransport system ("ETS"), a (passive) therapeutic transdermal system ("TTS") and intravenous ketorolac bolus injection.
The ketorolac treatments are listed below; there was a washout period of at least 6 days between treatments.
During the ETS (ketorolac) treatment, each subject was expected to receive an estimated 26 mg of ketorolac free acid over a 24-hour period, delivered by electrotransport from a total cathode area of 18 cm^2, based on an estimated in vitro flux rate of 60 μg/cm^2 /h.
Three electrotransport systems, with a total cathode gel area of 18 cm^2, were applied to the upper arms of each subject in this study. Each of the three controllers was set to provide a total direct current of 0.6 mA, which maintained a current density of 100 μA/cm^2.
During TTS treatment, each subject was expected to receive an estimated 50 mg of ketorolac free acid over a 24-hour period, delivered passively through the skin from a total application area of 75 cm^2 based on an estimated in vitro flux rate of 25 to 30 μg/cm^2 /h.
The TTS systems were produced with a backing and protective liner in a 25 cm^2 size. The system formulation contained drug (free acid), ethylene vinyl acetate (40% vinyl acetate), glycerol monolaurate, and Ceraphyl® 31. Three TTS monoliths, with a total surface area of 75 cm^2, were used to deliver the drug. The combined systems contained 135 mg of ketorolac free acid. Because the systems were not self-adhesive, an adhesive overlay was required to ensure good skin contact.
During the intravenous bolus treatment, each subject received a total of 24 mg of ketorolac free acid (36 mg of ketorolac tromethamine salt). Drug was delivered by IV bolus injections of 12 mg of ketorolac free acid (18 mg of ketorolac tromethamine salt) which were administered at Hour 0 and at Hour 12. A 1 mL aliquot of each ketorolac solution was retained directly after syringe preparation and prior to injection.
Initially either the ETS or the TTS was applied, or the first intravenous injection was administered. ETS and TTS treatments continued for 24 hours, and the bolus treatment was completed after the second dose at 12 hours. Blood and urine samples were collected at intervals during a 48-hour period after initiation of each ketorolac treatment regimen.
Blood samples, 7 mL each, were collected from each subject at intervals during the 48 hour period after initiation of treatment.
Plasma levels of ketorolac were determined by HPLC assay, performed at the Clinical Pharmacology Division of the School of Medicine at Indiana University, Wishard Memorial Hospital, Indianapolis, Ind.
Actual blood sample collection times were used for all calculations and data were summarized by nominal sampling times. Plasma ketorolac concentrations below the assay quantification limit of 20 ng/mL were assigned a value of zero.

The conditions of data set [2]: in vivo. How it is done: The transport of the R- and S-isomers of ketorolac was evaluated using passive transdermal delivery and electrotransport, in a study conducted in healthy volunteers. Intravenous bolus administration of 24 mg racemic ketorolac served as the reference treatment. The relative amounts of R- and S-ketorolac absorbed following passive transdermal and electrotransport administration were determined relative to intravenous R- and S-ketorolac clearance (assuming that the racemic ketorolac contained equal amounts of the R- and S-isomers).

The conditions of data set [3]: in vivo; cited from earlier work.
For data set [4] the following is noted: transdermal; cited from earlier work.

Take `O=C(c1ccccc1)c1ccc2n1CC[C@H]2C(=O)O` [R-ketorolac]: the “Plasma Ketorolac Concentrations” value turned out to be 0.0 ng/mL in data set [1] (human, 60 min); 0.0 ng/mL in data set [1] (human, 90 min); 0.0 ng/mL in data set [1] (human, 240 min); 0.0 ng/mL in data set [1] (human, 360 min); 0.0 ng/mL in data set [1] (human, 480 min); 0.0 ng/mL in data set [1] (human, 720 min). The “Plasma Ketorolac Concentrations” value was 0.0 ng/mL in data set [1] (human, 960 min); 0.0 ng/mL in data set [1] (human, 1680 min); 0.0 ng/mL in data set [1] (human, 1920 min); 0.0 ng/mL in data set [1] (human, 2880 min); 0.0 ng/mL in data set [1] (human, iv, 720 min); 386.0 ng/mL in data set [1] (human, iv, 14 h). For the same compound, the “Plasma Ketorolac Concentrations” value in data set [1] (human, topical or ocular, 1.5 h) is 37.0 ng/mL; in data set [1] (human, topical or ocular, 12 h), 67.0 ng/mL; in data set [1] (human, topical or ocular, 20 h), 29.0 ng/mL; in data set [1] (human, topical or ocular, 24.5 h), 211.0 ng/mL. For the same compound, the AUC(0-inf) in data set [1] (human) was determined as 5640 ng·h/mL; in data set [1] (human, iv) it was 6250 ng·h/mL. The AUC inf in data set [1] (human, iv) was 6171 ng·h/mL. The “Apparent elimination rate constant (k)” value in data set [1] (human, iv) was 0.125 h⁻¹. For the same compound, in data set [1] (human, iv), the “Apparent half-life (t1/2)” value stood at 4.3 h. In data set [1] (human, iv), the C max is on record as 872 ng/mL. The “K2 (elimination rate constant)” value in data set [1] (human, iv) came out at 0.15 h⁻¹. In data set [1] (human, iv), this compound came in with a Volume of 5.4 L. Moreover, the k el in data set [1] (human, iv, Apparent elimination rate constant (k)) is 3.89e-05 s⁻¹. For the same compound, in data set [1] (human, iv, Apparent half-life (t1/2)), the half-life is 5 h. Also, in data set [1], the “plasma concentrations during TTS compared with ETS” value is listed as “lower than those observed during ETS administration”. The “Amount Delivered (AD), ETS/IV (amount absorbed)” value in data set [1] (iv) turned out to be 7.9 mg. Besides, in data set [1] (iv), the “Amount Delivered (AD), TTS/IV (amount absorbed)” value is given as 4.96 mg. The “K1 (distribution rate constant)” value in data set [1] (iv) worked out at 1.54 h⁻¹. In data set [1] (iv), this compound displayed a T max of 0.5 h. In addition, the “clearance, R- vs S-ketorolac” value in data set [1] (iv) was “differed”.

As to `O=C(c1ccccc1)c1ccc2n1CC[C@@H]2C(=O)O` [S-ketorolac], the “S/R ratio of amount absorbed, mean” value in data set [2] worked out at 1.15. The “S/R ratio of amount absorbed, median” value in data set [2] was found to be 1.18. Also, the “S/R ratio of amount absorbed, range” value in data set [2] is reported as 0.8-1.43. The “Plasma Ketorolac Concentrations” value in data set [1] (human, 60 min) is recorded as 0.0 ng/mL; in data set [1] (human, 90 min), 0.0 ng/mL; in data set [1] (human, 360 min), 0.0 ng/mL; in data set [1] (human, 480 min), 0.0 ng/mL; in data set [1] (human, 720 min) it was 0.0 ng/mL; in data set [1] (human, 960 min), 0.0 ng/mL. Also, the “Plasma Ketorolac Concentrations” value in data set [1] (human, 1200 min) was 0.0 ng/mL; in data set [1] (human, 1440 min) it was 0.0 ng/mL; in data set [1] (human, 1470 min), 0.0 ng/mL; in data set [1] (human, 1500 min) it was 0.0 ng/mL; in data set [1] (human, 1560 min), 0.0 ng/mL; in data set [1] (human, 1680 min), 0.0 ng/mL. Besides, the “Plasma Ketorolac Concentrations” value amounted to 0.0 ng/mL in data set [1] (human, iv, 240 min); 0.0 ng/mL in data set [1] (human, iv, 360 min); 0.0 ng/mL in data set [1] (human, iv, 480 min); 0.0 ng/mL in data set [1] (human, iv, 720 min); 113.0 ng/mL in data set [1] (human, iv, 14 h); 0.0 ng/mL in data set [1] (human, iv, 1080 min). Moreover, the “Plasma Ketorolac Concentrations” value in data set [1] (human, iv, 1200 min) was 0.0 ng/mL; in data set [1] (human, iv, 1440 min), 0.0 ng/mL; in data set [1] (human, topical or ocular, 16 h), 58.0 ng/mL; in data set [1] (human, topical or ocular, 28 h), 21.0 ng/mL. For the same compound, the AUC inf in data set [1] (human, iv) amounted to 1566 ng·h/mL. In data set [1] (human, iv), the “Apparent elimination rate constant (k)” value was found to be 0.41 h⁻¹. Also, in data set [1] (human, iv), the C max is on record as 404 ng/mL. Moreover, the “K2 (elimination rate constant)” value in data set [1] (human, iv) amounted to 0.35 h⁻¹. In data set [1] (human, iv), this compound returned a T max of 0.5 h. The Volume in data set [1] (human, iv) came out at 10.33 L. Besides, the AUC(0-inf) in data set [1] (human, iv) was 1560 ng·h/mL. Also, the “Amount Delivered (AD), ETS/IV (amount absorbed)” value in data set [1] (iv) is listed as 11.65 mg. Further, the “Amount Delivered (AD), TTS/IV (amount absorbed)” value in data set [1] (iv) was 4.76 mg. For the same compound, in data set [1] (iv), the “K1 (distribution rate constant)” value was determined as 2.10 h⁻¹. Further, the “clearance, R- vs S-ketorolac” value in data set [1] (iv) is listed as “differed”. For the same compound, in data set [3], the “clearance vs other enantiomer” value was “more rapid clearance than the other enantiomer”.

Regarding phenylpropanolamine, the “flux rates of individual purified isomers” value in data set [4] is on record as “nearly identical flux rates”.
